# Experimental data: ChEMBL document CHEMBL3875216, “Synthesis of antimicrobial glucosamides as bacterial quorum sensing mechanism inhibitors” (Bioorg Med Chem, 2017)
# Assays:
# Pseudomonas aeruginosa [1] = assay: Inhibition of LasR-dependent quorum sensing activity in Pseudomonas aeruginosa MH602 harboring GFP-fused […] LasB promoter assessed as inhibition of 3-oxo-dodecanoyl HSL-induced GFP expression at 2 mM measured after 8 hrs by fluorescence assay relative to control
# Pseudomonas aeruginosa [2] = assay: Inhibition of LasR-dependent quorum sensing activity in Pseudomonas aeruginosa MH602 harboring GFP-fused […] LasB promoter assessed as inhibition of 3-oxo-dodecanoyl HSL-induced GFP expression at 2 mM measured after 24 hrs by fluorescence assay relative to control
# Pseudomonas aeruginosa [3] = assay: Inhibition of LasR-dependent quorum sensing activity in Pseudomonas aeruginosa MH602 harboring GFP-fused […] LasB promoter assessed as inhibition of 3-oxo-dodecanoyl HSL-induced GFP expression at 1 mM measured after 8 hrs by fluorescence assay relative to control
# Pseudomonas aeruginosa [4] = assay: Inhibition of LasR-dependent quorum sensing activity in Pseudomonas aeruginosa MH602 harboring GFP-fused […] LasB promoter assessed as inhibition of 3-oxo-dodecanoyl HSL-induced GFP expression at 500 uM measured after 8 hrs by fluorescence assay relative to control
# Pseudomonas aeruginosa [5] = assay: Inhibition of LasR-dependent quorum sensing activity in Pseudomonas aeruginosa MH602 harboring GFP-fused […] LasB promoter assessed as inhibition of 3-oxo-dodecanoyl HSL-induced GFP expression at 500 uM measured after 24 hrs by fluorescence assay relative to control
# Escherichia coli [6] = assay: Inhibition of LuxR-dependent quorum sensing activity in Escherichia coli MT102 harboring pJBA132 assessed as inhibition of OHHL-induced GFP expression at 2 mM measured after 8 hrs by fluorescence assay relative to control
# Escherichia coli [7] = assay: Inhibition of LuxR-dependent quorum sensing activity in Escherichia coli MT102 harboring pJBA132 assessed as inhibition of OHHL-induced GFP expression at 1 mM measured after 8 hrs by fluorescence assay relative to control
# Escherichia coli [8] = assay: Inhibition of LuxR-dependent quorum sensing activity in Escherichia coli MT102 harboring pJBA132 assessed as inhibition of OHHL-induced GFP expression at 500 uM measured after 8 hrs by fluorescence assay relative to control
# Pseudomonas aeruginosa [9] = assay: Growth inhibition of Pseudomonas aeruginosa MH602 at 2 mM after 8 hrs relative to control; conditions: MH602, 8 h, read-out: GI
# Pseudomonas aeruginosa [10] = assay: Growth inhibition of Pseudomonas aeruginosa MH602 at 2 mM after 24 hrs relative to control; conditions: MH602, 24 h, read-out: GI
# Pseudomonas aeruginosa [11] = assay: Growth inhibition of Pseudomonas aeruginosa MH602 at 1 mM after 8 hrs relative to control; conditions: MH602, 8 h, read-out: GI
# Pseudomonas aeruginosa [12] = assay: Growth inhibition of Pseudomonas aeruginosa MH602 at 1 mM after 24 hrs relative to control; conditions: MH602, 24 h, read-out: GI
# Pseudomonas aeruginosa [13] = assay: Growth inhibition of Pseudomonas aeruginosa MH602 at 500 uM after 8 hrs relative to control; conditions: MH602, 8 h, read-out: GI
# Pseudomonas aeruginosa [14] = assay: Growth inhibition of Pseudomonas aeruginosa MH602 at 500 uM after 24 hrs relative to control; conditions: MH602, 24 h, read-out: GI
# Escherichia coli [15] = assay: Growth inhibition of Escherichia coli MT102 at 2 mM after 8 hrs relative to control; conditions: MT102, 8 h, read-out: GI
# Escherichia coli [16] = assay: Growth inhibition of Escherichia coli MT102 at 2 mM after 24 hrs relative to control; conditions: MT102, 24 h, read-out: GI
# Escherichia coli [17] = assay: Growth inhibition of Escherichia coli MT102 at 1 mM after 8 hrs relative to control; conditions: MT102, 8 h, read-out: GI
# Escherichia coli [18] = assay: Growth inhibition of Escherichia coli MT102 at 1 mM after 24 hrs relative to control; conditions: MT102, 24 h, read-out: GI
# Escherichia coli [19] = assay: Growth inhibition of Escherichia coli MT102 at 500 uM after 8 hrs relative to control; conditions: MT102, 8 h, read-out: GI
# Escherichia coli [20] = assay: Growth inhibition of Escherichia coli MT102 at 500 uM after 24 hrs relative to control; conditions: MT102, 24 h, read-out: GI
# [21] = test system: Pseudomonas aeruginosa PA14; assay: Inhibition of quorum sensing-regulated pyocyanin production in Pseudomonas aeruginosa PA14 at 2 mM after 24 hrs relative to control
# Pseudomonas aeruginosa [22] = assay: Growth inhibition of Pseudomonas aeruginosa PA14 at 2 mM after 24 hrs relative to control; conditions: 2000 µM
# [23] = test system: Pseudomonas aeruginosa PA14; assay: Inhibition of quorum sensing-regulated biofilm formation in Pseudomonas aeruginosa PA14 at 2 mM after overnight incubation by crystal violet staining based assay relative to control
# Escherichia coli [24] = assay: Inhibition of LuxR-dependent quorum sensing activity in Escherichia coli MT102 harboring pJBA132 assessed as inhibition of OHHL-induced GFP expression at 1 mM measured after 24 hrs by fluorescence assay relative to control
# Escherichia coli [25] = assay: Inhibition of LuxR-dependent quorum sensing activity in Escherichia coli MT102 harboring pJBA132 assessed as inhibition of OHHL-induced GFP expression at 2 mM measured after 24 hrs by fluorescence assay relative to control
# Pseudomonas aeruginosa [26] = assay: Inhibition of LasR-dependent quorum sensing activity in Pseudomonas aeruginosa MH602 harboring GFP-fused […] LasB promoter assessed as inhibition of 3-oxo-dodecanoyl HSL-induced GFP expression at 1 mM measured after 24 hrs by fluorescence assay relative to control
SMILES,inhibition (Pseudomonas aeruginosa [2]),inhibition (Pseudomonas aeruginosa [3]),inhibition (Pseudomonas aeruginosa [4]),inhibition (Escherichia coli [6]),inhibition at 2000 µM (Pseudomonas aeruginosa [9]),inhibition at 2000 µM (Pseudomonas aeruginosa [10]),inhibition at 1000 µM (Pseudomonas aeruginosa [11]),inhibition at 1000 µM (Pseudomonas aeruginosa [12]),inhibition at 500 µM (Pseudomonas aeruginosa [13]),inhibition at 500 µM (Pseudomonas aeruginosa [14]),inhibition at 2000 µM (Escherichia coli [15]),inhibition at 2000 µM (Escherichia coli [16]),inhibition at 1000 µM (Escherichia coli [17]),inhibition at 1000 µM (Escherichia coli [18]),inhibition at 500 µM (Escherichia coli [19]),inhibition at 500 µM (Escherichia coli [20]),inhibition [21],growth inhibition (GI) (Pseudomonas aeruginosa [22]),inhibition [23],inhibition (Escherichia coli [24]),other results
CCCCCC(=O)CC(=O)N[C@H]1[C@H](OC(C)=O)O[C@H](COC(C)=O)[C@@H](OC(C)=O)[C@@H]1OC(C)=O,2.5%,8.9%,4.9%,7.9%,0%,0%,0%,0%,0%,4.2%,9.2%,20.8%,2.3%,13.2%,0%,2.3%,1.9%,Non-Toxic,19.5%,–,inhibition (Pseudomonas aeruginosa [1]): 18.9%; inhibition (Pseudomonas aeruginosa [5]): 3.3%; inhibition (Escherichia coli [7]): 2.1%; inhibition (Escherichia coli [8]): 7.7%
O=C(Cc1ccc(F)cc1)N[C@@H]1[C@@H](O)[C@H](O)[C@@H](CO)O[C@H]1O,2.9%,29%,9.2%,12.6%,0%,0%,0%,3%,0%,1.4%,0%,15.8%,0%,8.8%,0%,19.4%,6.6%,Non-Toxic,5.1%,2%,inhibition (Pseudomonas aeruginosa [1]): 31.3%; inhibition (Escherichia coli [7]): 3.6%; inhibition (Escherichia coli [8]): 2.4%
O=C(Cc1ccc(Br)cc1)N[C@@H]1[C@@H](O)[C@H](O)[C@@H](CO)O[C@H]1O,–,14.3%,6.6%,15.2%,0%,4%,1.8%,1.6%,0%,1.8%,0%,6.1%,0%,5.9%,0%,3%,8.6%,Non-Toxic,17.3%,4.6%,inhibition (Pseudomonas aeruginosa [1]): 15.3%; inhibition (Pseudomonas aeruginosa [5]): 2.4%; inhibition (Escherichia coli [25]): 1.1%; inhibition (Escherichia coli [7]): 6.5%; inhibition (Escherichia coli [8]): 11.9%
CCCCCCCC(=O)N[C@@H]1[C@@H](O)[C@H](O)[C@@H](CO)O[C@H]1O,21.3%,12.2%,17.5%,16.7%,21.3%,65.4%,0%,0%,3.4%,0%,30.7%,0%,10.6%,4.4%,0%,0%,11.7%,Non-Toxic,14%,48.2%,inhibition (Pseudomonas aeruginosa [1]): 23.2%; inhibition (Escherichia coli [25]): 45.7%
CCCCCCCCCCCC(=O)N[C@H]1[C@H](OC(C)=O)O[C@H](COC(C)=O)[C@@H](OC(C)=O)[C@@H]1OC(C)=O,35.3%,–,12.8%,1.8%,1.2%,0%,0%,0%,0%,0%,21.8%,15%,0%,13.4%,0%,12.2%,19.7%,Non-Toxic,3.5%,31.5%,inhibition (Escherichia coli [25]): 59.7%
CCCCCCCCCC(=O)N[C@H]1[C@H](OC(C)=O)O[C@H](COC(C)=O)[C@@H](OC(C)=O)[C@@H]1OC(C)=O,17.2%,7%,10.2%,48.1%,10.2%,0%,7.8%,1.2%,0%,0%,30.6%,15.9%,0%,12.6%,12.8%,11.1%,–,Non-Toxic,46.9%,5.1%,inhibition (Pseudomonas aeruginosa [26]): 7.8%; inhibition (Escherichia coli [25]): 35.5%
